{"source": "patent US9422240B2", "about": "“Partially saturated nitrogen-containing heterocyclic compound” (TAISHO PHARMACEUTICAL CO., LTD, priority 2012, dated 2016)", "note": "Structures can show the parent of a compound that is named as a salt."}
{"biological_target": "human PHD2 (Homo sapiens (Human), UniProt Q9GZT9)", "sequence (Q9GZT9 whole entry)": "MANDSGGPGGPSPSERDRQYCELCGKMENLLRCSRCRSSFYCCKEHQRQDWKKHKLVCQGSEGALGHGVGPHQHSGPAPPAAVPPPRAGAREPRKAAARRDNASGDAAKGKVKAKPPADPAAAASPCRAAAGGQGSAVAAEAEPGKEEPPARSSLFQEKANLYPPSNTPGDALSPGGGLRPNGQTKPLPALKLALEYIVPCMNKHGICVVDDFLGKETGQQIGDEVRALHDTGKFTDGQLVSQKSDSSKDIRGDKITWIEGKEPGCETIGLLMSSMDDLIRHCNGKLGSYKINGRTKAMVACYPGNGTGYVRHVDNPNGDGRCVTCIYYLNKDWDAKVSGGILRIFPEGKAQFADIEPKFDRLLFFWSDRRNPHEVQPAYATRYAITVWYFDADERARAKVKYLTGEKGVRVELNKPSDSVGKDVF", "test": "Test 2: human PHD2 inhibitory activity, fluorescence polarization assay of HIF-1α peptide proline hydroxylation", "type": "biochemical", "details": "read-out: Percent inhibition (% at 1 μM)", "summary_of_the_method": "(§1)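 A 19-mer HIF-1α peptide served as substrate, with the reaction started by 40 ng/well human PHD2 (cell lysate of NM_022051-transfected cells) and run 20 min at 30° C. before EDTA stop. Hydroxylated product bound anti-HIF-OH antibody, read by fluorescence polarization versus no-compound control.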", "units": {"inhibition at 1 µM": "%"}}
{"smiles": "CC1(C)CC(O)=C(C(=O)NCC(=O)O)C(=O)N1CC(=O)NCc1ccc(-c2ccccc2)cc1", "note": "[Ex. 10-1, N-[(1-{2-[(4-Biphenylylmethyl)amino]-2-oxoethyl}-4-hydroxy-6,6-dimethyl-2-oxo-1,2,5,6-tetrahydro-3-pyridinyl)carbonyl]glycine sodium salt]", "inhibition at 1 µM": 34}
{"biological_target": "human PHD2 (Homo sapiens (Human), UniProt Q9GZT9)", "test": "Test 2: human PHD2 inhibitory activity, fluorescence polarization assay of HIF-1α peptide proline hydroxylation", "type": "biochemical", "details": "test compound's concentration 1 μM; Test 2, fluorescence polarization assay; read-out: Percent inhibition (% at 1 μM)", "summary_of_the_method": "as §1", "units": {"inhibition at 1 µM": "%"}}
{"smiles": "O=C(O)CNC(=O)C1=C(O)CN(Cc2ccc(OCC3CC3)cc2)C1=O", "note": "[Ex. 6-7]", "inhibition at 1 µM": 86}
{"smiles": "CC1C(O)=C(C(=O)NCC(=O)O)C(=O)N1Cc1ccc(OCC2CC2)cc1", "note": "(stereo not shown) [Ex. 6-8]", "inhibition at 1 µM": 83}
{"smiles": "CC1(C)C(O)=C(C(=O)NCC(=O)O)C(=O)N1Cc1ccc(OCC2CC2)cc1", "note": "[Ex. 6-9]", "inhibition at 1 µM": 85}
{"smiles": "O=C(O)CNC(=O)C1=C(O)C[C@H](c2ccccc2)N(Cc2ccc(OCC3CC3)cc2)C1=O", "note": "[Ex. 6-10]", "inhibition at 1 µM": 76}
{"smiles": "O=C(O)CNC(=O)C1=C(O)C[C@@H](c2ccccc2)N(Cc2ccc(OCC3CC3)cc2)C1=O", "note": "[Ex. 6-11]", "inhibition at 1 µM": 73}
{"smiles": "CC1CC(O)=C(C(=O)NCC(=O)O)C(=O)N1Cc1ccc(OCC2CC2)cc1", "note": "(stereo not shown) [Ex. 6-12]", "inhibition at 1 µM": 67}
{"smiles": "O=C(O)CNC(=O)C1=C(O)CC2(CCOCC2)N(Cc2ccc(OCC3CC3)cc2)C1=O", "note": "[Ex. 6-13]", "inhibition at 1 µM": 81}
{"smiles": "O=C(O)CNC(=O)C1=C(O)CC2(COC2)N(Cc2ccc(OCC3CC3)cc2)C1=O", "note": "[Ex. 6-14]", "inhibition at 1 µM": 80}
{"smiles": "NC(=O)[C@H]1CC(O)=C(C(=O)NCC(=O)O)C(=O)N1Cc1ccc(OCC2CC2)cc1", "note": "[Ex. 6-15]", "inhibition at 1 µM": 55}
{"smiles": "NC(=O)[C@@H]1CC(O)=C(C(=O)NCC(=O)O)C(=O)N1Cc1ccc(OCC2CC2)cc1", "note": "[Ex. 6-16]", "inhibition at 1 µM": 26}
{"smiles": "CC1(C)CC(O)=C(C(=O)NCC(=O)O)C(=O)N1CC1CCN(c2ncccn2)CC1", "note": "[Ex. 6-17]", "inhibition at 1 µM": 32}
{"smiles": "CC1(C)CC(O)=C(C(=O)NCC(=O)O)C(=O)N1CC1CCN(C(=O)CC2CC2)CC1", "note": "[Ex. 6-18]", "inhibition at 1 µM": 24}
{"smiles": "O=C(O)CNC(=O)C1=C(O)C[C@H](c2cccnc2)N(Cc2ccc(OCC3CC3)cc2)C1=O", "note": "[Ex. 6-19]", "inhibition at 1 µM": 72}
{"smiles": "O=C(O)CNC(=O)C1=C(O)C[C@@H](c2cccnc2)N(Cc2ccc(OCC3CC3)cc2)C1=O", "note": "[Ex. 6-20]", "inhibition at 1 µM": 84}
{"smiles": "O=C(O)CNC(=O)C1=C(O)C[C@@H](Cc2ccccc2)N(Cc2ccc(OCC3CC3)cc2)C1=O", "note": "[Ex. 6-21]", "inhibition at 1 µM": 85}
{"smiles": "O=C(O)CNC(=O)C1=C(O)C[C@H](Cc2ccccc2)N(Cc2ccc(OCC3CC3)cc2)C1=O", "note": "[Ex. 6-22]", "inhibition at 1 µM": 88}
{"smiles": "O=C(O)CNC(=O)C1=C(O)C2(CCCCC2)CN(Cc2ccc(OCC3CC3)cc2)C1=O", "note": "[Ex. 6-23]", "inhibition at 1 µM": 85}
{"smiles": "O=C(O)CNC(=O)C1=C(O)CC2(CCCCC2)N(Cc2ccc(OCC3CC3)cc2)C1=O", "note": "[Ex. 6-24]", "inhibition at 1 µM": 78}
{"smiles": "CC1(C)CC(O)=C(C(=O)NCC(=O)O)C(=O)N1Cc1ccc(OCC(N)=O)cc1", "note": "[Ex. 6-25]", "inhibition at 1 µM": 49}
{"smiles": "CC1(C)CC(O)=C(C(=O)NCC(=O)O)C(=O)N1CC1CCN(Cc2ccccc2)CC1", "note": "[Ex. 6-26]", "inhibition at 1 µM": 16}
{"smiles": "CC(C)[C@H]1CC(O)=C(C(=O)NCC(=O)O)C(=O)N1Cc1ccc(OCC2CC2)cc1", "note": "[Ex. 6-27]", "inhibition at 1 µM": 51}
{"smiles": "CC(C)[C@@H]1CC(O)=C(C(=O)NCC(=O)O)C(=O)N1Cc1ccc(OCC2CC2)cc1", "note": "[Ex. 6-28]", "inhibition at 1 µM": 42}
{"smiles": "CC1(C)CC(O)=C(C(=O)NCC(=O)O)C(=O)N1Cc1ccc(OCC2CC2)nc1", "note": "[Ex. 6-29]", "inhibition at 1 µM": 69}
{"smiles": "O=C(O)CNC(=O)C1=C(O)C[C@H](CO)N(Cc2ccc(OCC3CC3)cc2)C1=O", "note": "[Ex. 6-30]", "inhibition at 1 µM": 45}
{"smiles": "O=C(O)CNC(=O)C1=C(O)C[C@@H](CO)N(Cc2ccc(OCC3CC3)cc2)C1=O", "note": "[Ex. 6-31]", "inhibition at 1 µM": 44}
{"smiles": "CC1(C)CC(O)=C(C(=O)NCC(=O)O)C(=O)N1CC1CN(c2ncccn2)C1", "note": "[Ex. 6-32]", "inhibition at 1 µM": 4}
{"smiles": "CC1(C)CC(O)=C(C(=O)NCC(=O)O)C(=O)N1Cc1ccc(OCC2CC2)nn1", "note": "[Ex. 6-33]", "inhibition at 1 µM": 68}
{"smiles": "COC[C@@H]1CC(O)=C(C(=O)NCC(=O)O)C(=O)N1Cc1ccc(OCC2CC2)cc1", "note": "[Ex. 6-34]", "inhibition at 1 µM": 70}
{"smiles": "CC1(C)CC(O)=C(C(=O)NCC(=O)O)C(=O)N1Cc1cnc(OCC2CC2)cn1", "note": "[Ex. 6-35]", "inhibition at 1 µM": 60}
{"smiles": "CN(C)C[C@@H]1CC(O)=C(C(=O)NCC(=O)O)C(=O)N1Cc1ccc(OCC2CC2)cc1", "note": "[Ex. 6-36]", "inhibition at 1 µM": 30}
{"smiles": "O=C(O)CNC(=O)C1=C(O)CC2(CCN(C(=O)c3ccccc3)CC2)N(Cc2ccc(-c3ccccc3)cc2)C1=O", "note": "[Ex. 7-1, N-{[9-Benzoyl-1-(4-biphenylylmethyl)-4-hydroxy-2-oxo-1,9-diazaspiro[5.5]undec-3-en-3-yl]carbonyl}glycine]", "inhibition at 1 µM": 97}
{"smiles": "O=C(O)CNC(=O)C1=C(O)CC2(CCN(Cc3ccccc3)CC2)N(Cc2ccc(-c3ccccc3)cc2)C1=O", "note": "[Ex. 7-2, N-{[9-Benzyl-1-(4-biphenylylmethyl)-4-hydroxy-2-oxo-1,9-diazaspiro[5.5]undec-3-en-3-yl]carbonyl}glycine trifluoroacetate]", "inhibition at 1 µM": 88}
{"smiles": "O=C(O)CNC(=O)C1=C(O)CC2(CCN(C(=O)c3ccccc3)CC2)N(Cc2ccccc2)C1=O", "note": "[Ex. 7-3, N-[(9-Benzoyl-1-benzyl-4-hydroxy-2-oxo-1,9-diazaspiro[5.5]undec-3-en-3-yl)carbonyl]glycine]", "inhibition at 1 µM": 65}
{"smiles": "COc1ccc(CN2CCC(O)=C(C(=O)NCC(=O)NO)C2=O)cc1", "note": "[Ex. 8-1, 4-Hydroxy-N-[2-(hydroxyamino)-2-oxoethyl]-1-(4-methoxybenzyl)-2-oxo-1,2,5,6-tetrahydro-3-pyridinecarboxamide]", "inhibition at 1 µM": 16}
{"smiles": "COc1ccc(CN2CCC(O)=C(C(=O)NCCC(=O)O)C2=O)cc1", "note": "[Ex. 9-1, N-{[4-Hydroxy-1-(4-methoxybenzyl)-2-oxo-1,2,5,6-tetrahydro-3-pyridinyl]carbonyl}-β-alanine]", "inhibition at 1 µM": 29}
{"smiles": "COc1ccc(CN2CCC(O)=C(C(=O)NCCCC(=O)O)C2=O)cc1", "note": "[Ex. 9-2]", "inhibition at 1 µM": 23}
{"smiles": "COc1ccc(CN2CCC(O)=C(C(=O)N[C@H](C)C(=O)O)C2=O)cc1", "note": "[Ex. 9-3]", "inhibition at 1 µM": 1}
{"smiles": "COc1ccc(CN2CCC(O)=C(C(=O)N[C@@H](C)C(=O)O)C2=O)cc1", "note": "[Ex. 9-4]", "inhibition at 1 µM": 42}
{"smiles": "COc1ccc(CN2CCC(O)=C(C(=O)N(C)CC(=O)O)C2=O)cc1", "note": "[Ex. 9-5, N-{[4-Hydroxy-1-(4-methoxybenzyl)-2-oxo-1,2,5,6-tetrahydro-3-pyridinyl]carbonyl}-N-methylglycine]", "inhibition at 1 µM": 3}
{"smiles": "CC1(C)CC(O)=C(C(=O)NCC(=O)O)C(=O)N1CC(=O)NCc1ccc(C(F)(F)F)cc1", "note": "[Ex. 10-2]", "inhibition at 1 µM": 6}
{"smiles": "CN(Cc1ccc(F)cc1)C(=O)CN1C(=O)C(C(=O)NCC(=O)O)=C(O)CC1(C)C", "note": "[Ex. 10-4]", "inhibition at 1 µM": 10}
{"smiles": "O=C(O)CNC(=O)C1=C(O)CCN(C(CO)c2ccc(-c3ccc(F)cc3)cc2)C1=O", "note": "(stereo not shown) [Ex. 11-1, N-({1-[1-(4′-Fuoro-4-biphenylyl)-2-hydroxyethyl]-4-hydroxy-2-oxo-1,2,5,6-tetrahydro-3-pyridinyl}carbonyl)glycine]", "inhibition at 1 µM": 96}
